Reference: PMC9629493, “Crystal structure of DNA polymerase I from Thermus phage G20c” (Acta Crystallographica. Section D, Structural Biology, 2022)

How the values were obtained:
ExnV1 [1] = target: T1, ExnV1 (uncultured virus, UniProt Z9YD31SC24); test: X-ray crystal structure, […] A; type: binding; conditions: TMP and MgCl2 added before concentration; 5 mM TMP, 10 mM MgCl2 in cryo-solution; 100 mM Bicine pH 9.3; exonuclease active site
T1 construct: full 314-residue 3'-5' exonuclease domain protein, N-terminal His6 tag (pJOE5751.1, pLEI447.1), E. coli JM109, about 36 kDa, no oligomerization

ExnV1 [2] = target: T1, ExnV1; test: differential scanning fluorimetry; type: binding; conditions: with MgCl2

Cc1cn([C@H]2C[C@H](O)[C@@H](COP(=O)(O)O)O2)c(=O)[nH]c1=O [thymidine monophosphate]
X-ray crystal structure, 2.19 A (ExnV1 [1]): the second O atom of the phosphate group of the substrate nucleotide
thermal stabilization (ExnV1 [2]): Differential scanning fluorimetry showed that ExnV1 was stabilized by thymidine monophosphate (TMP) and MgCl2
